System: Abp1 PPIs
Experiment: DHFR-PCA of Abp1 SH3-swapped baits (Fig. 2B-D, S2C, S2F);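 as to Protein-protein interaction distance between Abp1 SH3-swapped baits, to ABP1: Euclidean distance between DHFR-PCA score profiles of the baits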;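 as to Protein-protein interaction distance between Abp1 SH3-swapped baits, to BEM1-2: Euclidean distance between DHFR-PCA score profiles of the baits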;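 as to Protein-protein interaction distance between Abp1 SH3-swapped baits, to BOI1: Euclidean distance between DHFR-PCA score profiles of the baits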;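 as to Protein-protein interaction distance between Abp1 SH3-swapped baits, to BZZ1-1: Euclidean distance between DHFR-PCA score profiles of the baits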
Type: cell-based, Saccharomyces cerevisiae
From the text: Having determined that multiple PPIs require SH3s, we asked whether the latter establish PPI specificity independently from their host proteins by swapping domains (Fig. 2A). Using the second round of genome editing, we individually replaced Abp1 SH3 with the 27 yeast SH3s and 3 human Abp1 orthologs’ SH3s (CTTN, HCLS1, and DBNL, Fig. 2B). The reintroduction of its own SH3 (Abp1SH3 in Abp1) reconstitutes almost perfectly Abp1’s interaction profile (Kendall’s τ = 0.93, Fig. 2B). […] No homologous SH3 domain fully re-establishes the normal Abp1 PPI profile (Fig. 2B and Supplementary Fig. 2C). However, we observe a significant correlation (cophenetic correlation = 0.20, p value = 0.005, Fig. 2C) between the similarity of PPI profiles (Fig. 2B) and the sequence similarity of the SH3s. […] Nonetheless, a subset of SH3-dependent PPIs is only observed with the endogenous domain. For instance, Hua2 and App1, both well-characterized partners of Abp1[14],[18],[19], are only detected when Abp1 contains its own SH3 (WT or swapped via editing). A given SH3 may therefore not be fully replaceable with other paralogous or orthologous domains. This pattern is confirmed by cellular growth phenotypic analyses (Supplementary Fig. 2D, E). PPIs, SH3 sequence similarity, and growth profiles under stress conditions are correlated (Supplementary Fig. 2D, E). This relationship is particularly clear when analyzing growth on media supplemented with hygromycin.
The stuffing of YSC84 SH3 rendered the strain sterile and was therefore not used for this study as the assays require crosses. For genes containing two SH3s (BZZ1 and BEM1), a combination of this first stuffer with a second one ([…]) coding for a highly similar linker ([…]) was used, which allowed targeting each SH3 position independently. The two N-terminal domains of SLA1, which are separated by six nucleotides, were stuffed by a single stuffer. Cells containing pCAS were selected via the G418 resistance cassette from the plasmid on YPD plates (YPD + NAT 100 μg/ml (DHFR F[1,2] selection) + G418 200 µg/mL (Bioshop Canada)). Colonies were randomly selected and grown in YPD media without G418 to allow plasmid loss. The correct insertion of the stuffer was validated by PCR and Sanger sequencing. The SH3-swapped, -shuffled, and -mutated strains were constructed following a second CRISPR–Cas9 editing step with the same procedures. The stuffer sequences were targeted by specific gRNAs (one gRNA per stuffer) and replaced by PCR amplified specific SH3 (with 40 bp homology arms) or libraries of mutated SH3 domains for Deep Mutational Scanning (DMS) with 78 bp flanking homology regions. Validation of the SH3 domain insertions was done as we previously described except for DMS libraries (see below).
The overall DHFR-PCA pipeline is based on Tarassov et al.[43] and the procedures have also been published as a visualized protocol. The screens were performed with robotically manipulated pin tools (BM5-SC1, S&P Robotics Inc.). First, the preys were cherry-picked from 96-well plates to omnitrays in a 384 format on YPD + HPH solid media. Plates were then combined into the 1536 format on YPD + HPH. The array was constituted of 575 preys previously shown to interact physically with at least one SH3-containing protein as reported in BioGRID V3.4.16 along with 40 negative controls. The prey array comprised a border of control strains of two rows and two columns corresponding to the PPI between LSM8-DHFR F[1,2] and CDC39-DHFR F[3]. This double border was used to remove border effects. Preys are present in duplicate at a randomized position in the 1536 array (except for YAL041W which is present four times per array). Baits were crossed with two prey plates, resulting in four independent bait–prey tests for each PPI. Baits were grown in liquid YPD + NAT and then transferred on solid YPD + NAT omnitrays. They were then replicated on YPD + NAT omnitrays in 1536 array format. […]

[1] = number of PPIs, difference, Abp1 SH3-swapped with the listed SH3, Fig2D,S2F

RVS167
Protein-protein interaction distance between Abp1 SH3-swapped baits, to ABP1 (Abp1 bait with swapped SH3, distance to bait with ABP1 SH3, sheet Fig2C): 9.548
Protein-protein interaction distance between Abp1 SH3-swapped baits, to BBC1 (distance to Abp1 bait with BBC1 SH3, sheet Fig2C): 9.304
Protein-protein interaction distance between Abp1 SH3-swapped baits, to BEM1-1 (distance to Abp1 bait with BEM1-1 SH3, sheet Fig2C): 14.67
Protein-protein interaction distance between Abp1 SH3-swapped baits, to BEM1-2 (distance to Abp1 bait with BEM1-2 SH3, sheet Fig2C): 33.63
Protein-protein interaction distance between Abp1 SH3-swapped baits, to BOI1 (distance to Abp1 bait with BOI1 SH3, sheet Fig2C): 11.58
Protein-protein interaction distance between Abp1 SH3-swapped baits, to BOI2 (distance to Abp1 bait with BOI2 SH3, sheet Fig2C): 15.22
Protein-protein interaction distance between Abp1 SH3-swapped baits, to BUD14 (distance to Abp1 bait with BUD14 SH3, sheet Fig2C): 18.02
Protein-protein interaction distance between Abp1 SH3-swapped baits, to BZZ1-1 (distance to Abp1 bait with BZZ1-1 SH3, sheet Fig2C): 5.914
Protein-protein interaction distance between Abp1 SH3-swapped baits, to BZZ1-2 (distance to Abp1 bait with BZZ1-2 SH3, sheet Fig2C): 11.17
Protein-protein interaction distance between Abp1 SH3-swapped baits, to CDC25 (distance to Abp1 bait with CDC25 SH3, sheet Fig2C): 27.4
Protein-protein interaction distance between Abp1 SH3-swapped baits, to CTTN (distance to Abp1 bait with CTTN SH3, sheet Fig2C): 12.4
Protein-protein interaction distance between Abp1 SH3-swapped baits, to CYK3 (distance to Abp1 bait with CYK3 SH3, sheet Fig2C): 28.09
Protein-protein interaction distance between Abp1 SH3-swapped baits, to DBNL (distance to Abp1 bait with DBNL SH3, sheet Fig2C): 5.554
Protein-protein interaction distance between Abp1 SH3-swapped baits, to FUS1 (distance to Abp1 bait with FUS1 SH3, sheet Fig2C): 19.5
Protein-protein interaction distance between Abp1 SH3-swapped baits, to HCLS1 (distance to Abp1 bait with HCLS1 SH3, sheet Fig2C): 7.638
Protein-protein interaction distance between Abp1 SH3-swapped baits, to HOF1 (distance to Abp1 bait with HOF1 SH3, sheet Fig2C): 32.19
Protein-protein interaction distance between Abp1 SH3-swapped baits, to HSE1 (distance to Abp1 bait with HSE1 SH3, sheet Fig2C): 7.315
Protein-protein interaction distance between Abp1 SH3-swapped baits, to LSB1 (distance to Abp1 bait with LSB1 SH3, sheet Fig2C): 7.392
Protein-protein interaction distance between Abp1 SH3-swapped baits, to LSB3 (distance to Abp1 bait with LSB3 SH3, sheet Fig2C): 7.852
Protein-protein interaction distance between Abp1 SH3-swapped baits, to MYO3 (distance to Abp1 bait with MYO3 SH3, sheet Fig2C): 9.049
Protein-protein interaction distance between Abp1 SH3-swapped baits, to MYO5 (distance to Abp1 bait with MYO5 SH3, sheet Fig2C): 7.689
Protein-protein interaction distance between Abp1 SH3-swapped baits, to NBP2 (distance to Abp1 bait with NBP2 SH3, sheet Fig2C): 17.22
Protein-protein interaction distance between Abp1 SH3-swapped baits, to PEX13 (distance to Abp1 bait with PEX13 SH3, sheet Fig2C): 4.587
Protein-protein interaction distance between Abp1 SH3-swapped baits, to PIN3 (distance to Abp1 bait with PIN3 SH3, sheet Fig2C): 5.294
Protein-protein interaction distance between Abp1 SH3-swapped baits, to RVS167 (distance to Abp1 bait with RVS167 SH3, sheet Fig2C): 0.00
Protein-protein interaction distance between Abp1 SH3-swapped baits, to SDC25 (distance to Abp1 bait with SDC25 SH3, sheet Fig2C): 34.37
Protein-protein interaction distance between Abp1 SH3-swapped baits, to SHO1 (distance to Abp1 bait with SHO1 SH3, sheet Fig2C): 6.815
Protein-protein interaction distance between Abp1 SH3-swapped baits, to SLA1-1 (distance to Abp1 bait with SLA1-1 SH3, sheet Fig2C): 30.09
Protein-protein interaction distance between Abp1 SH3-swapped baits, to SLA1-2 (distance to Abp1 bait with SLA1-2 SH3, sheet Fig2C): 19.9
Protein-protein interaction distance between Abp1 SH3-swapped baits, to SLA1-3 (distance to Abp1 bait with SLA1-3 SH3, sheet Fig2C): 7.698
Protein-protein interaction distance between Abp1 SH3-swapped baits, to YSC84 (distance to Abp1 bait with YSC84 SH3, sheet Fig2C): 8.283
PPIs gained by Abp1 - SH3-dependent PPIs gained by Abp1 [1]: 9
SH3-dependent PPIs - SH3-dependent PPIs gained by Abp1 [1]: 26
SH3-dependent PPIs gained by Abp1 (number of PPIs, Abp1 SH3-swapped with the listed SH3, DHFR-PCA, Fig2D,S2F): 5
